Measured values as given in ChEMBL document CHEMBL3739321, “Multicomponent reaction-based synthesis and biological evaluation of tricyclic heterofused quinolines with multi-trypanosomatid activity” (Eur J Med Chem, 2015).

Assays:
Leishmania infantum [1] = experiment: Potency index, ratio of potassium antimony (III) tartarate hydrate IC50 to compound IC50 for promastigote stage of Leishmania infantum MCAN/ES/92/BCN722; type: functional
Trypanosoma brucei = experiment: Potency index, ratio of nifurtimox IC50 to compound IC50 for bloodstream form of Trypanosoma brucei 221; type: functional
Trypanosoma cruzi = experiment: Potency index, ratio of benzanidazole IC50 to compound IC50 for epimastigote stage of Trypanosoma cruzi MHOM/ES/2203/BCN590; type: functional
L6 = experiment: Cytotoxicity against rat L6 cells after 6 days by resazurin staining based fluorescence plate reader assay; type: cell-based
Leishmania infantum [2] = experiment: Leishmanicidal activity against promastigote stage of Leishmania infantum MCAN/ES/92/BCN722 after 48 hrs by acid phosphatase based assay; type: functional, organism-based
[3] = Selectivity index, ratio of IC50 for rat L6 cells to IC50 for promastigote stage of Leishmania infantum MCAN/ES/92/BCN722; type: toxicity, cell-based

Clc1ccc2nc(-c3cccs3)c3c(c2c1)OCCC3
Ratio IC50 (Leishmania infantum [1]): <=5

N#Cc1ccc(-c2nc3ccc(Cl)cc3c3c2CCCN3)cc1
Ratio IC50 (Leishmania infantum [1]): <=5

N#Cc1ccc(-c2nc3cc(Cl)ccc3c3c2CCCN3)cc1
Ratio IC50 (Leishmania infantum [1]): <=5

NCc1ccc(-c2nc3ccc(Cl)cc3c3c2CCCO3)cc1
Ratio IC50 (Trypanosoma brucei): 2 | Ratio IC50 (Leishmania infantum [1]): <=5

N#Cc1ccc(-c2nc3ccc(Cl)cc3c3c2CCCO3)cc1
Ratio IC50 (Leishmania infantum [1]): <=5

N#Cc1ccc(-c2nc3cc(Cl)ccc3cc2CCCN)cc1
Ratio IC50 (Leishmania infantum [1]): <=5

NCc1ccc2nc(-c3ccc(Cl)cc3)c3c(c2c1)N(Cc1ccccc1)CCC3
Ratio IC50 (Trypanosoma brucei): 2 | Ratio IC50 (Leishmania infantum [1]): <=5

NCc1ccc(-c2nc3ccc(Cl)cc3c3c2CCCCN3)cc1
Ratio IC50 (Trypanosoma brucei): 2 | Ratio IC50 (Leishmania infantum [1]): <=5

N#Cc1ccc([C@H]2Nc3ccc(Cl)cc3[C@@H]3OCCC[C@H]23)cc1
Ratio IC50 (Leishmania infantum [1]): <=5

N#Cc1ccc(-c2nc3ccc(Cl)cc3c3c2CCN3)cc1
Ratio IC50 (Leishmania infantum [1]): <=5

Clc1ccc2nc(-c3ccco3)c3c(c2c1)OCCC3
Ratio IC50 (Leishmania infantum [1]): <=5

NCc1ccc(-c2nc3ccc(Cl)cc3c3c2CCN3)cc1
Ratio IC50 (Trypanosoma brucei): 2 | Ratio IC50 (Leishmania infantum [1]): <=5

NCc1ccc(-c2nc3ccc(Cl)cc3c3c2CCCN3)cc1
Ratio IC50 (Trypanosoma brucei): 2 | Ratio IC50 (Leishmania infantum [1]): <=5

CCN(CC)CCCc1cc2cc(Cl)ccc2nc1-c1cccs1
Ratio IC50 (Leishmania infantum [1]): <=5

Clc1ccc2nc(-c3cccs3)c(CCCN3CCCC3)cc2c1
Ratio IC50 (Leishmania infantum [1]): <=5

OCCCc1cc2cc(Cl)ccc2nc1-c1cccs1
Ratio IC50 (Leishmania infantum [1]): <=5

NCc1ccc(-c2nc3ccc(Cl)cc3c3c2CCCN3Cc2ccccc2)cc1
Ratio IC50 (Trypanosoma brucei): 2 | Ratio IC50 (Trypanosoma cruzi): 4 | Ratio IC50 (Leishmania infantum [1]): <=5

POTASSIUM ANTIMONYL TARTRATE TRIHYDRATE
IC50 (L6): 3.27 µM | IC50 (Leishmania infantum [2]): 24.3 µM | Ratio IC50 [3]: 0.1

OCCCc1cc2cc(Cl)ccc2nc1-c1ccco1
Ratio IC50 (Leishmania infantum [1]): <=5

NCc1ccc(-c2nc3cc(Cl)ccc3c3c2CCCN3)cc1
Ratio IC50 (Trypanosoma brucei): 2 | Ratio IC50 (Leishmania infantum [1]): <=5

N#Cc1ccc(-c2nc3ccc(Cl)cc3c3c2CCCCN3)cc1
Ratio IC50 (Leishmania infantum [1]): <=5

N#CCCc1cc2cc(Cl)ccc2nc1-c1cccs1
Ratio IC50 (Leishmania infantum [1]): <=5
